Data on 15 compounds can be found in patent US9351947B2, “Use of catecholamines and related compounds as anti-angiogenic agents” (National Research Council of Canada, priority 2007, dated 2016).

In one data set the test system is retinal capillaries. Put plainly: Glycation of retinal capillaries in diabetic rats (anti-glycated BSA / anti-lectin staining). The data set is classed as in vivo, Sprague-Dawley rats. On the procedure: Animal weights were monitored every week.
The effects of (S)-isoproterenol on diabetic retinopathy were studied by staining retinal capillaries with antibodies against lectin. The capillary density at the retinal center, corresponding to the macular of the human eye, was analyzed.
Diabetes induces glycation in retina. Since (S)-isoproterenol is a potent anti-glycation agent, penetration of (S)-isoproterenol reduces glycation in diabetic retinal capillaries. Thus, the retinas, which were stained with antibodies against lectin, were also stained with antibodies against glycated bovine serum albumin, and the degree of glycation of retinal capillaries was analyzed.

Data set [1] can be described thus: Storage stability of the eye drop at 4° C. (HPLC profiles). The data set is classed as physicochemical. The note with it: 0.10% (w/v) eye drop, pH 5.5, one month of storage at 4° C.
Data set [2] can be described thus: Optical stability (racemization) in eye drop formulations, 10 days at 55° C., chiral HPLC. The data set is classed as physicochemical. Conditions: for % optical purity: 3.0 mg/mL, pH 6.0, starting material 99.87%. On the procedure:
The optical isomers of (S)-isoproterenol bitartrate and (S)-isoproterenol dipivalate hydrochloride were separated by HPLC using Shiseido chiral CD-Ph column (250×4.6 mm; 5 μm; isocratic 60:40 of 0.5 M sodium perchlorate/water and acetonitrile; flow rate, 1.0 mL/min). The elution profile was monitored by the absorption at 223 nm for isoproterenol bitartrate and 264 nm for isoproterenol dipivalate hydrochloride. The optical impurities were quantitated by the absorbance at 223 nm for isoproterenol bitartrate and 264 nm for isoproterenol dipivalate hydrochloride and by using a curve fitting software TABLECurve2D (Systat). The impurities of (R)-isoproterenol bitartrate and (R)-isoproterenol dipivalate hydrochloride were estimated as […], respectively. Thus, the racemization induced during synthesis and purification was minimal, if it occurred.
Table 2 describes the optical purities of (S)-isoproterenol and (S)-isoproterenol dipivalate after incubation in various eye drop formulations for 10 days at 55° C. and compared with those before incubation. The incubation for 10 days at 55° C. corresponds to the incubation for 167 days at 22° C.

The test system of data set [3] is HUVECs. Description: Matrigel endothelial cell capillary-tube formation assay. The data set is classed as cell-based, human. Conditions: 22 h; for Activity (anti-angiogenicity): measured at 20 μM, HUVECs on Matrigel. As for the experimental part: HUVECs were purchased from Cedarlane Laboratories (Burlington, Canada) and maintained in Endothelial Cell Basal Medium-2 (EBM-2) supplemented with EGM-2 growth factor mixture (Clonetics) and 2% Foetal bovine serum. The cells were cultured at 37° C. under a humidified 95%/5% (v/v) mixture of air and CO2.
Matrigel endothelial cell tube formation assays were performed using BD Matrigel™ (Becton, Dickinson). BD Matrigel™ was thawed at 4° C., and 150 μL were quickly added to each well of a 48-well plate and allowed to solidify for 60 min at 37° C. HUVECs (7×10^4 cells/mL) In EC basal medium-2 (EBM-2) were seeded 250 μL per well onto the surface of the solid BD Matrigel™ in the presence of the compounds to be tested. The cells were incubated for 22 h at […] in a 5% CO2 incubator. Tube formation was monitored by using a Leitz Labovert (Leitz, Wetzlar, Germany) inverted microscope. Two randomly selected two microscopic fields were photographed with a digital camera (Nikon, COOLPICKS 995). The total length of tube structures in each photograph was measured using ImageJ™ free software (http://rsb.info.nih.gov/ij/) and was normalized to that of control with no test compound. Each reported value represents the average of total six photographs from three independent experiments.

Data set [4] has as its system HUVECs. Description: Invasion of HUVECs through Matrigel-coated filter (Matrigel Invasion Chambers). It is filed as cell-based, human. The note with it: measured at 20 μM; HUVECs. On the procedure:
HUVECs were purchased from Cedarlane Laboratories (Burlington, Canada) and maintained in Endothelial Cell Basal Medium-2 (EBM-2) supplemented with EGM-2 growth factor mixture (Clonetics) and 2% Foetal bovine serum. The cells were cultured at 37° C. under a humidified 95%/5% (v/v) mixture of air and CO2. Invasion of endothelial cells was measured using BD BioCoatTM Growth Factor Reduced MatrigelTM Invasion Chambers (Beckton-Dickinson; […]). EBM-2 medium (500 μL each) was placed into the lower wells. HUVECs (2.5×10^4) in EBM-2 serum-free medium (500 μL) were seeded into each of the upper wells and incubated in the presence of a test compound. HUVECs were allowed to migrate for 36 h at 37° C. in an atmosphere of 95% air/5% CO2. HUVECs that remained on the upper surface of the filter were removed using a cotton swab. HUVECs that had migrated to the lower surface of the filters were fixed with methanol, stained with 0.1% crystal violet/20% (v/v) methanol and examined using a Leitz Labovert (Leitz, Wetzlar, Germany) inverted microscope after mounting on a slide. Three randomly selected microscopic fields were digitally captured using a Nikon […] 995 digital camera and the number of HUVECs in each photograph were directly counted. Each reported value represents the average and standard deviation of a total […] from two independent experiments.

The test system of another data set is angiogenesis. The note with it: cited from earlier work; for Activity (angiogenic / anti-angiogenic): Ref. Thaker et al., 2006 (a), Ref. Basu et al., 2001 (b).
The conditions of data set [5]: in vivo; cited from earlier work.
For data set [6] the following is noted: acute intravenous, mice; cited from earlier work.
The conditions of data set [7]: 2.47% instilled to normal human eyes; cited from earlier work.

SMILES strings stand for the structures. “Also recorded” adds a separate entry of the source. Where two headings read alike, the source gives them in different places.

In the case of `CC(C)NC[C@@H](O)c1ccc(OC(=O)C(C)(C)C)c(OC(=O)C(C)(C)C)c1` [(S)-isoproterenol dipivalate], the “effect on glycation in retinal capillaries” value in the data set on retinal capillaries (0.1% eye drop) was “significantly reduced the glycation in retinal capillaries”. For the same compound, the “red fluorescence intensity of AGEs normalized by the retinal capillary density” value with retinal capillaries (0.1% eye drop twice a day, P 0.068 vs diabetic rats with vehicle) is 0.44±0.17. The blood glucose level is 5.1 ± 0.4 mM (Group II, non-diabetic rats receiving prodrug eye drop, 27 week period) and 27 ± 5 mM (Group IV, diabetic rats receiving prodrug eye drop, stabilized level). Further, the “degradation of the active ingredient in eye drop (HPLC profiles)” value in [1] is “No degradation”. In addition, the “conversion to the (R)-isoform” value in [2] (10 days at 55° C.) stood at 0.02%. The “% optical purity” value in [2] (10 days at 55° C., NaCl 8 mg/mL, Benzalkonium chloride 0.04 mg/mL, Tween 80 2.5 mg/mL) was over 99.90%; in data set [2] (10 days at 55° C., Povidone 2 mg/mL, Benzalkonium chloride 0.04 mg/mL, D-Mannitol 54.7 mg/mL), 99.90%; in [2] (10 days at 55° C., Povidone 2 mg/mL, D-Mannitol 54.7 mg/mL, Chlorobutanol 1 mg/mL, 2-hydroxypropyl cyclodextrin 10.1 mg/mL) it was 99.74%; in data set [2] (10 days at 55° C., Povidone 2 mg/mL, NaCl 8 mg/mL, Benzalkonium chloride 0.04 mg/mL, 2-hydroxypropyl cyclodextrin 10.1 mg/mL) it was 99.86%. In [2] (average over the eye drop formulations), the “average optical purity after incubating 10 days at 55° C.” value was “approximately 99.85±0.08%”. In addition, the “optical purity after 2 years of storage at room temperature” value in data set [2] (extrapolated, from 99.87%) is on record as 99.78%.

With `CCC(NC(C)C)C(O)c1ccc(O)c(O)c1` (racemic) [Isoetharine, 1-(3,4-dihydroxyphenyl)-2-(Isopropylamino)-1(R,S)-butanol], the “Activity (anti-angiogenicity)” value in the data set with HUVECs [3] is reported as “Anti-angiogenic”; in the data set with HUVECs [3] (listed as isoetharine), “anti-angiogenic activity”.

On to `CNCC(O)c1ccc(O)c(O)c1` (racemic) [(R,S)-Adrenaline], for which the “Activity (anti-angiogenicity)” value with HUVECs [3] is listed as “no anti-angiogenic activity”. In addition, the “Activity (anti-invasion)” value with HUVECs [4] is “Non-antiinvasive”. In addition, in the data set on angiogenesis, the “Activity (angiogenic / anti-angiogenic)” value is “Angiogenic”.

Turning to `CO[C@H](CNC(C)C)c1ccc(O)c(O)c1` [(S)-1-(N-isopropyl)-3-methoxydopamine], in the data set on HUVECs [3], the “Activity (anti-angiogenicity)” value was “Anti-angiogenic”.

`CNCC(O)c1ccc(OC(=O)C(C)(C)C)c(OC(=O)C(C)(C)C)c1` (centres unmarked) [Dipivefrin]: in data set [5], the “enhancement of ocular absorption versus adrenaline” value was 17 time.

In the case of `NCCc1ccc(O)c(O)c1` [Dopamine], in the data set with HUVECs [3] (angiogenic assay condition used in FIG. 1, 1-50 μM), the “potency (inhibition of capillary tube formation)” value was “comparable potency”. Moreover, the “concentration showing effective anti-angiogenic activity” value in the data set with angiogenesis (Basu et al., 2001) was 1 µM. In addition, the “Activity (angiogenic / anti-angiogenic)” value in the data set on angiogenesis is “Anti-angiogenic^b”.

In the case of `CO[C@@H](CNC(C)C)c1ccc(O)c(O)c1` [(R)-1-(N-isopropyl)-3-methoxydopamine], in the data set on HUVECs [3], the “Activity (anti-angiogenicity)” value was “Anti-angiogenic”.

The LD50 is the dose expected to kill half of the subjects tested. In the case of `CC(C)NC[C@H](O)c1ccc(O)c(O)c1` [(R)-isoproterenol], the “Activity (anti-invasion)” value in the data set with HUVECs [4] was “did not show any anti-invasion activity; also recorded: Non-antiinvasive”. For the same compound, in data set [6], the LD50 was 57 ± 2 mg/kg. In addition, the “Activity (angiogenic / anti-angiogenic)” value with angiogenesis is listed as “Angiogenic”; in the data set on angiogenesis (listed as (R)-Isoproterenol), “angiogenic”.

For `CCCCNC[C@@H](O)c1ccc(O)c(O)c1` [(S)-N-n-butylnoradrenaline], the “Activity (anti-angiogenicity)” value is listed as “Anti-angiogenic” in the data set on HUVECs [3] and “anti-angiogenic activity” with HUVECs [3] (listed as (S)—N-butylnoradrenaline).

As for `CC(C)NCC(O)c1ccc(O)c(O)c1` (racemic) [(R,S)-isoproterenol, reference compound], the “Activity (anti-angiogenicity)” value in the data set with HUVECs [3] was “did not show anti-angiogenic activity; also recorded: no anti-angiogenic activity; also recorded: Non-antiangiogenic”. Moreover, in [7], the “duration of reduction in ocular tension” value is given as “at least 12 h” and the “reduction in ocular tension” value was 20%.

On to `NC[C@@H](O)c1ccc(O)c(O)c1` [(S)-Noradrenaline, reference compound], for which the results for the “Activity (anti-angiogenicity)” value in the data set on HUVECs [3] and with HUVECs [3] (listed as (S)-noradrenaline) were “Non-antiangiogenic” and “not anti-angiogenic”, respectively.

In the case of `NC[C@H](O)c1ccc(O)c(O)c1` [(R)-Noradrenaline], the “Activity (angiogenic / anti-angiogenic)” value with angiogenesis was “Angiogenic^a”.

Take `CC(C)(C)NCC(O)c1ccc(O)c(O)c1` (racemic) [(R,S)-N-tert-butylnoradrenaline]: the results for the “Activity (anti-angiogenicity)” value in the data set on HUVECs [3] and with HUVECs [3] (listed as (R,S)—N-tert-butylnoradrenaline) were “Anti-angiogenic” and “anti-angiogenic activity”, respectively.

For `CCCNC[C@@H](O)c1ccc(O)c(O)c1` [(S)-N-n-propylnoradrenaline], the “Activity (anti-angiogenicity)” value in the data set with HUVECs [3] is listed as “Anti-angiogenic”; with HUVECs [3] (listed as (S)—N-propylnoradrenaline), “anti-angiogenic activity”.

Consider `CCNC[C@@H](O)c1ccc(O)c(O)c1` [(S)-N-ethylnoradrenaline], for which the “Activity (anti-angiogenicity)” value with HUVECs [3] was “Anti-angiogenic”; in the data set with HUVECs [3] (listed as (S)—N-ethylnoradrenaline), “anti-angiogenic activity”.
